Values of other authors as cited in patent US20240024337A1, “INTERACTION OF SARS-COV-2 PROTEINS WITH MOLECULAR AND […] […] HOST CELLS AND FORMULATIONS TO TREAT COVID-19” (AKSEERA PHARMA CORP., priority 2020, published 2024).

Tested on: HT22 hippocampal neurons
Conditions: 5 μM; oxygen-glucose deprivation

SMILES: C=C(C)[C@@H]1CCC(C)=C[C@H]1c1c(O)cc(CCCCC)cc1O [Cannabidiol, 2-[(1R,6R)-3-Methyl-6-(1-methylethenyl)-2-cyclohexen-1-yl]-5-pentyl-1,3-benzenediol]
- apoptosis and oxidative stress: significantly attenuated
